Here are results for 42 compounds from patent US8697694B2, “Substituted pyridine and pyrimidine derivatives and their use in treating viral infections” (priority 2008, dated 2014).

One test has as its system HCV replicon cells. The experiment in a line: Cell-based HCV replicon assay (replicon RNA level by real time PCR, Taqman). The conditions noted are these: HCV replicon cells, replicon RNA level by real time PCR, harvested day 3; read-out: EC90 (μM) range. The gist of the method: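 HCV replicon cells treated 3 days with 10 serial 2-fold compound dilutions (top 25 μM to 1 μM; 0.5% DMSO, 10% FBS). Replicon RNA quantified by multiplex Taqman RT-PCR (NS5B amplicon, GAPDH control); EC50 and EC90 = concentrations giving ΔCT of 1 and 3.2 over baseline.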
(In general: In antiviral work, replicon cells carry a viral genome segment that copies itself.)
As usually defined, the EC90 is the concentration at which the effect reaches the 90% level. Consider `Cc1nc(NCC2CC2)nc(N[C@@H]2C[C@H](C(C)O)[C@@H](O)[C@H]2O)c1-c1nc2ccccc2s1` (single isomer, unassigned) [Example 1647], for which the EC90 was 0.5 to 5 µM.

The test is the same for the next values; noted with them: Hepatitis C virus, 72 h, HCV replicon cells, harvested day 3, replicon RNA by real time PCR; given as number; read-out: EC90 (μM) range.
As to `CCOc1cc2cc(-c3c(C)nc(NCC4CC4)nc3N[C@@H]3C[C@H](CO)[C@@H](O)[C@H]3O)oc2c(C)n1` [Example 30], the EC90 is 0.14 µM.
Still for that read-out and setting: then `COCCNc1nc(C)c(-c2cc3cc(OCC(C)(C)C)nc(C)c3o2)c(N[C@@H]2C[C@H](CO)[C@@H](O)[C@H]2O)n1` [Example 49], with above 25 µM.

Staying with this test, now noted: Hepatitis C virus, 72 h, HCV replicon cells, harvested day 3, replicon RNA by real time PCR; reported as range class; read-out: EC90 (μM) range.
Regarding `CCOCCNc1nc(C)c(-c2nc3ccccc3s2)c(N[C@@H]2C[C@H](CO)[C@@H](O)[C@H]2O)n1` [Example 208], the EC90 is below 0.5 µM.
Same read-out and setting: then `Nc1nc(Cl)c(-c2cc3cnccc3o2)c(N[C@@H]2C[C@H](CO)[C@@H](O)[C@H]2O)n1` [Example 8], with 0.5 to 5 µM.
Still for that read-out and setting: then `OC[C@H]1C[C@@H](Nc2nc(NCCF)nc(Cl)c2-c2nc3ccccc3s2)[C@H](O)[C@@H]1O` [Example 213], with below 0.5 µM; and `CN(C)c1nc(N[C@@H]2C[C@H](CO)[C@@H](O)[C@H]2O)c(-c2nc3ccccc3s2)c(-c2cccs2)n1` [Example 415], with above 5 µM.
The same measure, in the same setting: then `Nc1nc(Cl)c(-c2nc3ccccc3o2)c(N[C@@H]2C[C@H](CO)[C@@H](O)[C@H]2O)n1` [Example 109], with below 0.5 µM.
As for `CCCc1cc2cc(-c3c(Cl)nc(NC)nc3N[C@@H]3C[C@H](CO)[C@@H](O)[C@H]3O)oc2c(C)n1` [Example 312], the EC90 is below 0.5 µM.
`CCCOc1ccc2nc(-c3c(Cl)nc(N)nc3N[C@@H]3C[C@H](CO)[C@@H](O)[C@H]3O)sc2c1` [Example 197]: the EC90 was below 0.5 µM.
Still for that read-out and setting: then `Nc1nc(N[C@@H]2C[C@H](CO)[C@@H](O)[C@H]2O)c(-c2ncccn2)c(-c2ncccn2)n1` [Example 160], with above 5 µM; and `CCc1cc2cc(-c3c(Cl)nc(N)nc3N[C@@H]3C[C@H](CO)[C@@H](O)[C@H]3O)oc2c(CC)n1` [Example 407], with below 0.5 µM; and `N#Cc1ccc2oc(-c3c(Cl)nc(N)nc3N[C@@H]3C[C@H](CO)[C@@H](O)[C@H]3O)cc2c1` [Example 171], with above 5 µM.

The test is the same for the next values; noted with them: Hepatitis C virus, 72 h, HCV replicon cells, harvested on day 3, replicon RNA by real time PCR; calculated EC90 reported as range class; read-out: EC90 (μM) range.
On to `Cc1nc(CNc2nc(C)c(-c3nc4ccccc4s3)c(N[C@@H]3C[C@H](CO)[C@H]4OC(C)(C)O[C@H]43)n2)cs1` [Example 494], for which the EC90 is above 5 µM.
On to `Cc1cccc(CNc2nc(C)c(-c3nc4ccccc4s3)c(N[C@@H]3C[C@H](CO)[C@H]4OC(C)(C)O[C@H]43)n2)c1` [Example 485], for which the EC90 is 0.5 to 5 µM.
Same read-out and setting: then `CCOC(=O)NCCNc1nc(C)c(-c2nc3ccccc3s2)c(N[C@@H]2C[C@H](CO)[C@@H](O)[C@H]2O)n1` [Example 256], with below 0.5 µM; and `OC[C@H]1C[C@@H](Nc2nc(NCc3ccc(F)cc3)nc(Cl)c2-c2nc3ccccc3s2)[C@H](O)[C@@H]1O` [Example 251], with below 0.5 µM; and `CCCCCCNc1nc(C)c(-c2nc3ccccc3s2)c(N[C@@H]2C[C@H](CO)[C@@H](O)[C@H]2O)n1` [Example 455], with below 0.5 µM.
On to `COc1cccc(CNc2nc(C)c(-c3nc4ccccc4s3)c(N[C@@H]3C[C@H](CO)[C@H]4OC(C)(C)O[C@H]43)n2)c1` [Example 483], for which the EC90 is 0.5 to 5 µM.
Still for that read-out and setting: then `CCc1cc2cc(-c3c(C)nc(NCc4ccccn4)nc3N[C@@H]3C[C@H](CO)[C@@H](O)[C@H]3O)oc2cn1` [Example 344], with below 0.5 µM; and `OC[C@H]1C[C@@H](Nc2nc(NCC3CC3)nc(Cl)c2-c2nc3ccccc3s2)[C@H](O)[C@@H]1O` [Example 504], with below 0.5 µM; and `CC(=O)N1CCC(Nc2nc(Cl)c(-c3nc4ccccc4s3)c(N[C@@H]3C[C@H](CO)[C@@H](O)[C@H]3O)n2)CC1` [Example 507], with below 0.5 µM.
For the compound `OC[C@H]1C[C@@H](Nc2nc(NC3CCNCC3)nc(Cl)c2-c2nc3ccccc3s2)[C@H](O)[C@@H]1O` [Example 510], the EC90 is above 5 µM.

The same test, now with this note: Hepatitis C virus, 72 h, HCV replicon cells, replicon RNA level by real time PCR (Taqman), harvested on day 3; calculated EC90 reported as range class; read-out: EC90 (μM) range.
For `Cc1nc(Nc2ccccc2)nc(N[C@@H]2C[C@H](CO)[C@@H](O)[C@H]2O)c1-c1nc2cnccc2s1` [Example 1216], the EC90 was 0.5 to 5 µM.
The same measure, in the same setting: then `Cc1nc(NCC2CC2)nc(N[C@@H]2C[C@H](CO)[C@@H](O)[C@H]2O)c1-c1nc2cc(OC(F)F)c(OC(F)F)cc2s1` [Example 1006], with 0.5 to 5 µM; and `Cc1nc(Nc2ccccc2OC(F)(F)F)nc(N[C@@H]2C[C@H](CO)[C@@H](O)[C@H]2O)c1-c1nc2ccccc2s1` [Example 1236], with above 5 µM; and `Cc1nc(Nc2ccc(F)cc2)nc(N[C@@H]2C[C@H](CO)[C@@H](O)[C@H]2O)c1-c1nc2ccccc2s1` [Example 1044], with 0.5 to 5 µM.
Still for that read-out and setting: then `Cc1nc(NCC2CC2)nc(N[C@@H]2C[C@H](CO)[C@H]3OC(C)(C)O[C@H]32)c1-c1nc2cc(OC(F)F)c(OC(F)F)cc2s1` [Example 1005], with above 5 µM.
The same measure, in the same setting: then `Cc1nc(NC2CC2)nc(N[C@@H]2C[C@H](CO)[C@@H](O)[C@H]2O)c1-c1nc2cnccc2s1` [Example 534], with below 0.5 µM; and `Cc1cccc(CNc2nc(C)c(-c3nc4ccccc4s3)c(N[C@@H]3C[C@H](CO)[C@@H](O)[C@H]3O)n2)n1` [Example 1208], with 0.5 to 5 µM; and `Cc1ccc([C@@H](C)Nc2nc(C)c(-c3ccc4ccccc4n3)c(N[C@@H]3C[C@H](CO)[C@@H](O)[C@H]3O)n2)cc1` [Example 1323], with above 5 µM.
For the compound `Cc1nc(NCc2cccc(N(C)C)c2)nc(N[C@@H]2C[C@H](CO)[C@@H](O)[C@H]2O)c1-c1nc2ccccc2s1` [Example 1106], the EC90 is below 0.5 µM.
For `Cc1nc(NCc2cc(Cl)cc(Cl)c2)nc(N[C@@H]2C[C@H](CO)[C@@H](O)[C@H]2O)c1-c1nc2ccccc2s1` [Example 1114], the EC90 was 0.5 to 5 µM.

Still in this test, the particulars now being: Hepatitis C virus, 72 h, HCV replicon cells, replicon RNA level by real time PCR, harvested day 3; read-out: EC90 (μM) range.
Turning to `COc1ccc([C@H](Nc2nc(C)c(-c3nc4c(C)nccc4s3)c(N[C@@H]3C[C@H](CO)[C@@H](O)[C@H]3O)n2)C(F)(F)F)cc1` [Example 1540], the EC90 is below 0.5 µM.
The same measure, in the same setting: then `COC[C@@H](Nc1nc(C)c(-c2nc3c(C)nccc3s2)c(N[C@@H]2C[C@H](CO)[C@@H](O)[C@H]2O)n1)c1ccccc1` [Example 1364], with 0.5 to 5 µM.
The same measure, in the same setting: then `CCCc1nccc2sc(-c3c(C)nc(N[C@H](C)C(F)(F)F)nc3N[C@@H]3C[C@H](CO)[C@@H](O)[C@H]3O)nc12` [Example 1380], with below 0.5 µM.
The same measure, in the same setting: then `Cc1nc(NCC(F)(F)F)nc(N[C@@H]2C[C@H](C(O)c3nccn3C)[C@@H](O)[C@H]2O)c1-c1nc2ccccc2s1` (stereo partly drawn) [Example 1653], with below 0.5 µM; and `Cc1nc(N[C@H](c2ccc(C(F)(F)F)cc2)C(F)(F)F)nc(N[C@@H]2C[C@H](CO)[C@@H](O)[C@H]2O)c1-c1nc2c(C)nccc2s1` [Example 1531], with above 5 µM.
Consider `Cc1nc(NCC(F)(F)F)nc(N[C@@H]2C[C@H](CC#N)[C@@H](O)[C@H]2O)c1-c1nc2ccccc2s1` [Example 1635], for which the EC90 was below 0.5 µM.
Same read-out and setting: then `CCOCCNc1nc(C)c(-c2nc3c(C)nc(OCC)cc3s2)c(N[C@@H]2C[C@H](CO)[C@@H](O)[C@H]2O)n1` [Example 1376], with below 0.5 µM.
On the same count and under the same terms, then `Cc1nc(N[C@@H](c2ccsc2)C(F)(F)F)nc(N[C@@H]2C[C@H](CO)[C@@H](O)[C@H]2O)c1-c1nc2ccccc2s1` [Example 1703], with 0.5 to 5 µM; and `Cc1nc(N[C@H](C)c2ccc(OC(F)(F)F)cc2)nc(N[C@@H]2C[C@H](C(C)O)[C@@H](O)[C@H]2O)c1-c1nc2c(C)nccc2s1` (stereo partly drawn) [Example 1399], with below 0.5 µM.
